One data set relates to Typhlodromus pyri. Description: LR50; higher = less toxic. The following applies: acute; duration: 7 days; mortality.
In the next data set the test system is Hypoaspis aculeifer. To be noted: chronic/long-term; duration: 14 days.
The next data set concerns Bibionidae. The following applies: chronic/long-term; duration: 28 days; development.
The next data set relates to Daphnia magna. The following applies: chronic/long-term; duration: 21 days; reproduction.
The subject of a further data set is Lepomis macrochirus. The following applies: acute; duration: 96 hours; mortality.
The next data set concerns Apis mellifera. To be noted: acute; duration: 48 hours; dermal; mortality.

We go through one compound from EPA's ToxValDB 9.5 (doi:10.2903/j.efsa.2010.1389).

Values after ≈ are worked out from the molar mass of the structure shown.

What is called NOAEL is the highest tested level that showed no adverse finding. Take `CC(C)Oc1cc(-n2nc(C(C)(C)C)oc2=O)c(Cl)cc1Cl` [Oxadiazon]: the LR50 in the data set with Typhlodromus pyri turned out to be 150 g/ha. The NOEC in the data set on Hypoaspis aculeifer turned out to be 339 mg/kg; with Bibionidae, 5 mg/L; in the data set with Oncorhynchus mykiss (chronic/long-term, duration: 60 days, other), 0.00088 mg/L; in the data set with Colinus virginianus (reproduction developmental), 90.8 mg/kg-day; in the data set with Daphnia magna, 0.03 mg/L; in the data set with Anas platyrhynchos (reproductive), 106 mg/kg-day. Also, in the data set on Tagia sp. (chronic/long-term, duration: 8 weeks, reproduction), the NOEC is 133 mg/kg. Further, the LC50 with Oncorhynchus mykiss (acute, duration: 96 hours, mortality) was 1.2 µg/mL (≈ 3.48 µM); in the data set with Colinus virginianus (acute, oral, diet, mortality) it was above 730 mg/kg-day; in the data set with Anas platyrhynchos (short-term, oral, feed, mortality), above 1140 mg/kg-day; with Lepomis macrochirus, 1.2 µg/mL (≈ 3.48 µM); in the data set with Tagia sp. (acute, duration: 14 days, mortality) it was above 1000 mg/kg. The LD50 in the data set with Rattus norvegicus (acute, oral, mortality) is above 5000 mg/kg-day; in the data set with Colinus virginianus (acute, oral, mortality), above 2150 mg/kg-day; in the data set with Apis mellifera, above 100 µg/piece. The NOAEL in the data set on Rattus norvegicus (chronic) stood at 15 mg/kg-day; in the data set on Rattus norvegicus (chronic, duration: 2 years, organ weight), 0.36 mg/kg-day; in the data set with Rattus norvegicus (developmental, development), 12 mg/kg-day; with Rattus norvegicus (reproduction developmental, reproduction), 5 mg/kg-day.
